Values quoted from earlier work in patent US20190008798A1, “Coenzyme Q10 in the preventive treatment of type 2 diabetes” (Pharma Nord ApS, priority 2017, published 2019).

Tests used:
[1] = system: adipose tissue; conditions: mice

## COC1=C(OC)C(=O)C(C/C=C(\C)CC/C=C(\C)CC/C=C(\C)CC/C=C(\C)CC/C=C(\C)CC/C=C(\C)CC/C=C(\C)CC/C=C(\C)CC/C=C(\C)CCC=C(C)C)=C(C)C1=O [Q10, ubidecarenone]
other
  mortality in subjects with cardiac failure: decrease mortality
[1]
  insulin sensitivity in the adipose tissue: improves insulin sensitivity
